Entries after “also recorded” stand apart in the source; their conditions may differ. Like-named read-outs stand apart in the source and are kept apart here.
How the values were obtained:
ICR mice = assay: Blood pressure of pentobarbital-anesthetized ICR mice (femoral artery cannula); type: in vivo, mouse
Source text: By way of example, ICR mice were anesthetized with pentobarbital, and polyethylene cannulae were inserted into the femoral artery and vein for monitoring blood pressure and injecting drugs, respectively. Blood pressure was monitored directly by connecting the arterial cannula to a pressure transducer and physiograph.

[1] = tested on: Rat isolated mesenteric branch arteries; assay: Vasorelaxation of rat isolated mesenteric branch arteries precontracted with phenylephrine, wire myograph
Protocol: Arteries were mounted in a wire myograph, and precontracted with phenylephrine. Relaxation is expressed as % of the phenylephrine-induced vasoconstrictor tone, 0% representing maximal relaxation.
Rat isolated mesenteric branch arteries (˜200 μm in diameter) were precontracted with phenylephrine and measurements were recorded with a wire myograph.

mesenteric arteries [2] = assay: Mesenteric vasodilator response
mesenteric arteries [3] = conditions: cited from earlier work; for dilation of isolated mesenteric arteries: normal rats and mice, CB1 knockout and CB1/CB2 double knockout mice
[4] = target: brain cannabinoid (CB1) receptor (Homo sapiens, UniProt P21554); conditions: cited from earlier work
rats and mice = conditions: in vivo; cited from earlier work
[5] = tested on: normal rats and mice, CB1 knockout mice, CB1/CB2 double knockout mice; conditions: cited from earlier work
LPS-induced hypotension = LPS-induced hypotension in anesthetized mice; type: in vivo, mouse
Source text: Endotoxin was used to induce hypotension in control mice as well as in mice deficient in CB1 or both CB1 and CB2 receptors.

[6] = tested on: mesenteric branch arteries isolated from wild-type and CB1 receptor deficient mice; assay: Calcium-induced relaxation of mouse isolated mesenteric branch arteries precontracted with norepinephrine; conditions: 10 μM O-1918

Sequence of brain cannabinoid (CB1) receptor (P21554 whole entry, species assumed): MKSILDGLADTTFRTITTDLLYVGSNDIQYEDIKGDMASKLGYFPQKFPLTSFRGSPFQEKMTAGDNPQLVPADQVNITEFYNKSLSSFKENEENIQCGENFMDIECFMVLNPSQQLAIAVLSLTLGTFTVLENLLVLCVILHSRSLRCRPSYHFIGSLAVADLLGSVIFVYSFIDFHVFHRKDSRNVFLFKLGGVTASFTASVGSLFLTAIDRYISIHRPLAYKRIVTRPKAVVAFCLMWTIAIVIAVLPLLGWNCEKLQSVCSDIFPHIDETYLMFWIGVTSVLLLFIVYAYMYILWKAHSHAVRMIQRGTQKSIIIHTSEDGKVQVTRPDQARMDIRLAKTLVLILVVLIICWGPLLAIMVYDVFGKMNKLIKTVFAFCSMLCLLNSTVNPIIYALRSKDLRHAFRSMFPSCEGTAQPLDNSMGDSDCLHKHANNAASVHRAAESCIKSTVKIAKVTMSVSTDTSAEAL

Structure (SMILES): C=C(C)[C@@H]1CCC(C)=C[C@H]1c1c(O)cc(O)cc1CCCCC [Abn-cbd, abnormal cannabidiol]
- effect on blood pressure (ICR mice; intravenous injection of 10 mg/kg Abn-cbd): transient drop in blood pressure followed by a brief increase and then a more prolonged, significant decrease in pressure
- type of agonism in vasorelaxation [1]: full agonist
- EC50 ([1]; Abn-cbd alone, read-out: vasorelaxation EC50): 3.3 ± 0.5 µM
- EC50 ([1]; in the presence of 10 μM O-1918, read-out: vasorelaxation EC50 in the presence of O-1918): 26 ± 10 µM
- vasodilator response in presence of L-NAME and indomethacin (mesenteric arteries [2]; 100 μM L-NAME and 10 μM indomethacin): remains unchanged
- vasodilation in presence of capsazepine (mesenteric arteries [2]; bolus injection of 4 mg Abn-cbd, 5 μM capsazepine): elicited the same long lasting vasodilation
- dilation of isolated mesenteric arteries (mesenteric arteries [3]): dilate isolated mesenteric arteries
- binding to CB1 receptor [4]: does not bind to CB1 receptors
- neurobehavioral effects (rats and mice): does not elicit cannabinoid-like neurobehavioral effects
- effect on blood pressure ([5]; normal rats and mice, CB1 knockout and CB1/CB2 double knockout mice): lower blood pressure

Structure (SMILES): CCCCCCC(C)(C)c1cc(O)c2c(c1)OC(C)(C)[C@@H]1CC=C(CO)C[C@@H]21 [HU-210]
- hypotensive effect in CB1 receptor deficient mice ([5]; CB1 receptor deficient mice): absent

Structure (SMILES): C=C(C)C1CCC(C)=CC1c1c(OC)cc(C)cc1OC (stereo not shown) [O-1918]
- antagonism of hypotensive effect of Abn-cbd (ICR mice; 10 mg/kg O-1918, 10 min before 10 mg/kg Abn-cbd, FIG. 1A): the prolonged hypotensive phase of the effect of Abn-cbd was absent
- effect on blood pressure of the antagonist alone (ICR mice; 10 mg/kg O-1918 injected alone): did not influence blood pressure
- antagonism of hypotensive effect of HU-210 (CB1/CB2 agonist) (ICR mice; FIG. 1B): did not antagonize the hypotensive effect of HU-210
- prevention of LPS-induced hypotension (LPS-induced hypotension; 10 mg/kg O-1918, normal anesthetized mice, 100 mg/kg LPS): prevent the hypotension
- inhibition of LPS-induced hypotension (LPS-induced hypotension; pretreatment 1 to 10 mg/kg O-1918, ICR mice, 100 ng/kg LPS i.v., FIG. 3): dose-dependently inhibited
- inhibition of calcium-induced relaxation [6]: inhibited the calcium-induced relaxation
- inhibition of vasorelaxation caused by CGRP ([1]; 10 μM O-1918): did not inhibit the vasorelaxation
- inhibition of vasorelaxation caused by carbachol ([1]; 10 μM O-1918): did not inhibit the vasorelaxation
- effect on vascular tone ([1]; concentrations up to 30 μM): did not alter vascular tone
- shift of dose-response curve to Abn-cbd ([1]; preincubation with 1–10 μM O-1918, FIG. 4): progressively right-shifted; also recorded: concentration-dependent inhibition of the relaxing effect of Abn-cbd

Structure (SMILES): Cc1c(C(=O)NN2CCCCC2)nn(-c2ccc(Cl)cc2Cl)c1-c1ccc(Cl)cc1 [SR141716A]
- inhibition of LPS-induced hypotension (LPS-induced hypotension; pretreatment 3 mg/kg SR141716A, wild-type mice, CB1 deficient and CB1/CB2 deficient mice, FIG. 2): inhibited; also recorded: could be prevented

Structure (SMILES): C=C(C)[C@@H]1CCC(C)=C[C@H]1c1c(O)cc(CCCCC)cc1O [cannabidiol]
- antagonism of vasodilator effect of Abn-cbd (mesenteric arteries [3]; mesenteric): able to antagonize the vasodilator effect of Abn-cbd
- dilation of isolated mesenteric arteries (mesenteric arteries [3]): does not elicit mesenteric vasodilation
- neurobehavioral effects (rats and mice): devoid of neurobehavioral effects
